Data on 17 compounds can be found in patent US10752587B2, “Homobispiperidinyl derivatives as liver X receptor beta agonists, compositions and their use” (Merck Sharp & Dohme Corp., priority 2015, dated 2020).

Molecules are shown by their SMILES.

In test [1] the target is T1, glutathione-S-transferase (GST) tagged LXRbeta LBD (ligand binding domain) (Homo sapiens, UniProt P55055).
T1 construct: purchased Invitrogen pv4658.pps
T1 sequence (P55055 222-460 limits assumed): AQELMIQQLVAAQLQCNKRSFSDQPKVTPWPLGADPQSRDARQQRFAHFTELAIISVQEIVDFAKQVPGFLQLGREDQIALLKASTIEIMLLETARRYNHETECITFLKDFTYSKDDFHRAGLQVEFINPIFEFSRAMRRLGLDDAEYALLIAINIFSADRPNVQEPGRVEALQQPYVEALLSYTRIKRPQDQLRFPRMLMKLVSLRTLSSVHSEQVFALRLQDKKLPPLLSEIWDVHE
The test can be described thus: LanthaScreen TR-FRET Liver X Receptor Coactivator Assay, co-activator recruitment to LXRbeta LBD. Conditions: for Emax: efficacy at max dose, in relation to reference dual agonist T0901317, read-out: LXR beta Activity @ max dose (%); for EC50: potency (Inflection Point, IP), co-activator recruitment to LXRbeta LBD, in relation to T0901317, read-out: LXR beta IP. The format is biochemical. How it is done: (§1) Potency (Inflection Point, IP) and efficacy (Emax) are evaluated via compound-induced co-activator recruitment to glutathione-S-transferase (GST) tagged LXRbeta and LXRalpha LBD (ligand binding domain) proteins in relation to reference dual agonist compound T0901317 (N-(2,2,2-Trifluoroethyl)-N-[4-[2,2,2-trifluoro-1-hydroxy-1-(trifluoromethyl)ethyl] phenyl] benzenesulfonamide) using the LanthaScreen™ TR-FRET Liver X Receptor Coactivator Assays according to manufacturer's instructions (Invitrogen catalog number pv4658.pps and pv4655). While running the LanthaScreen™ TR-FRET Liver X Receptor Coactivator Assay, LXR alpha-LBD or LXR beta-LBD was added to ligand test compounds followed by addition of a mixture of a fluorescein-labelled coactivator peptide and terbium-conjugated anti-GST antibody. After an incubation period at room temperature, TR-FRET (time-resolved fluorescence resonance energy transfer) was measured using a filter-based instrument capable of TR-FRET, e.g. PerkinElmer Envision.
For orientation: TR-FRET usually uses a lanthanide donor and a delayed reading to cut background.

The target in test [2] is T2, glutathione-S-transferase (GST) tagged LXRalpha LBD (ligand binding domain) (Homo sapiens, UniProt Q13133).
T2 construct: purchased Invitrogen pv4655
T2 sequence (Q13133 209-447 limits assumed): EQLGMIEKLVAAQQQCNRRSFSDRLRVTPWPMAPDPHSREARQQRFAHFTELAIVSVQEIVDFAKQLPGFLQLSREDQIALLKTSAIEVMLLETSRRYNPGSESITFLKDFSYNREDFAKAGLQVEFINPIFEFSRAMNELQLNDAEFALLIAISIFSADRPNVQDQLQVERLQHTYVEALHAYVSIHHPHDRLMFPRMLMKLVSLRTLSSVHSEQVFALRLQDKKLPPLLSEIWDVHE
Description: LanthaScreen TR-FRET Liver X Receptor Coactivator Assay, co-activator recruitment to LXRalpha LBD. The format is biochemical. The settings on record: for Emax: read-out: LXR alpha Activity @ max dose (%); for LXR alpha IP (nM) / EC50: potency (Inflection Point, IP), co-activator recruitment to LXRalpha LBD, in relation to T0901317; for EC50: read-out: LXR alpha IP. On the procedure: as §1

Setting [3] is: efficacy at max dose, in relation to reference dual agonist T0901317.

As for `COc1cccc([C@@](O)(C(=O)N2CCC(CC3CCN(c4ccc(C(=O)N(C)C)c(Cl)c4)CC3)CC2)C(F)(F)F)c1` (single isomer, unassigned) [Example 2-34], in test [1], the Emax is 69% and the EC50 amounted to 0.494 µM. Further, the Emax in test [2] (setting [3]) amounted to 1%. The “LXR alpha IP (nM)” value in test [2] was “NO IP”.
For `CN(C)C(=O)c1ccc(N2CCC(CC3CCN(C(=O)[C@](N)(c4ccccc4)C(F)(F)F)CC3)CC2)cc1Cl` (stereo in doubt) [Example 2-101, 4-[4-({1-[2-amino-3,3,3-trifluoro-2-phenyl-propanoyl]piperidin-4-yl}methyl)piperidin-1-yl]-2-chloro-N,N-dimethyl-benzamide], the Emax in test [1] is 106%; in test [2] (setting [3]), 21%. Also, the EC50 in test [1] is 0.114 µM; in test [2], 1.77 µM.
For the compound `COc1cccc([C@@](O)(C(=O)N2CCC(CC3CCN(c4ccc(C(=O)N(C)C)c(Cl)c4)CC3)CC2)C(F)(F)F)n1` (stereo in doubt) [Example 2-165, 2-chloro-N,N-dimethyl-4-[4-({1-[3,3,3-trifluoro-2-hydroxy-2-(6-methoxy-pyridin-2-yl)propanoyl]piperidin-4-yl}methyl)piperidin-1-yl]benzamide], in test [1], the Emax was determined as 108% and the EC50 worked out at 0.0025 µM. Also, the Emax in test [2] (setting [3]) worked out at 18%. Moreover, in test [2], the “LXR alpha IP (nM)” value is reported as “NO IP”.
For `CN(C)C(=O)c1ccc(N2CCC(CC3CCN(C(=O)[C@](O)(c4csc5ccccc45)C(F)(F)F)CC3)CC2)cc1Cl` (stereo in doubt) [Example 2-169, 4-[4-({1-[2-(1-benzothiophen-3-yl)-3,3,3-trifluoro-2-hydroxy-propanoyl]piperidin-4-yl}methyl)piperidin-1-yl]-2-chloro-N,N-dimethyl-benzamide] the same measures were 71%, 0.011 µM, 17% and “NO IP”.
`CN(C)C(=O)c1ccc(N2CCC(CC3CCN(C(=O)OC(C)(C)C)CC3)CC2)cc1Cl` [Example 1-1, tert-butyl 4-((1-(3-chloro-4-(dimethylcarbamoyl)phenyl)piperidin-4-yl)methyl)piperidine-1-carboxylate]: the Emax in test [1] is 63%; in test [2] (setting [3]), 22%. Also, the EC50 worked out at 0.136 µM in test [1] and 0.844 µM in test [2].
Take `Cc1cc(N2CCC(CC3CCN(C(=O)OC(C)(C)C)CC3)CC2)ccc1C(=O)N(C)C` [Example 1-2, tert-butyl 4-({1-[4-(dimethylcarbamoyl)-3-methylphenyl]piperidin-4-yl}methyl)piperidine-1-carboxylate]: in test [1], the Emax came out at 58% and the EC50 was 0.24 µM. Besides, the Emax in test [2] (setting [3]) turned out to be 13%. In addition, in test [2], the “LXR alpha IP (nM)” value is “NO IP”.
For `CN(C)C(=O)c1ccc(N2CCC(CC3CCN(C(=O)C(C)(C)c4ccccc4)CC3)CC2)cc1Cl` [Example 2-1, 2-chloro-N,N-dimethyl-4-(4-((1-(2-methyl-2-phenylpropanoyl)piperidin-4-yl)methyl)piperidin-1-yl)benzamide] the same measures were 59%, 0.157 µM, 5% and “NO IP”.
As for `COc1cccc([C@@](O)(C(=O)N2CCC(CC3CCN(c4cnc(C(=O)N(C)C)c(C)c4)CC3)CC2)C(F)(F)F)c1` [Example 2-2, N,N,3-trimethyl-5-[4-({1-[(2R)-3,3,3-trifluoro-2-hydroxy-2-(3-methoxy-phenyl)propanoyl]piperidin-4-yl}methyl)piperidin-1-yl]pyridine-2-carboxamide], the Emax in test [1] came out at 43%; in test [2] (setting [3]), 5%. For the same compound, in test [1], the EC50 was found to be 0.155 µM. For the same compound, the “LXR alpha IP (nM)” value in test [2] is “NO IP”.
For `COc1cccc([C@@](O)(C(=O)N2CCC(CC3CCN(c4cnc(C(=O)N(C)C)c(Cl)c4)CC3)CC2)C(F)(F)F)c1` [Example 2-3, 3-chloro-N,N-dimethyl-5-[4-({1-[(2R)-3,3,3-trifluoro-2-hydroxy-2-(3-methoxyphenyl)propanoyl]piperidin-4-yl}methyl)piperidin-1-yl]pyridine-2-carboxamide], in test [1], the Emax is 50% and the EC50 was 0.026 µM. The Emax in test [2] (setting [3]) came out at 6%. Moreover, in test [2], the “LXR alpha IP (nM)” value is “NO IP”.
Regarding `CN(C)C(=O)c1ncc(N2CCC(CC3CCN(C(=O)[C@](O)(c4ccccc4)C(F)(F)F)CC3)CC2)cc1Cl` [Example 2-4, 3-chloro-N,N-dimethyl-5-[4-({1-[(2R)-3,3,3-trifluoro-2-hydroxy-2-phenylpropanoyl]piperidin-4-yl}methyl)piperidin-1-yl] pyridine-2-carboxamide], the Emax in test [1] turned out to be 80%; in test [2] (setting [3]) it was 24%. The EC50 in test [1] is 0.019 µM; in test [2], 0.461 µM.
As to `CN(C)C(=O)c1ncc(N2CCC(CC3CCN(C(=O)C(O)(c4cccc(C(F)(F)F)c4)C(F)(F)F)CC3)CC2)cc1Cl` (stereo not shown) [Example 2-5, 3-chloro-N,N-dimethyl-5-{4-[(1-{3,3,3-trifluoro-2-hydroxy-2-[3-(trifluoromethyl)phenyl]propanoyl}piperidin-4-yl)methyl]piperidin-1-yl}pyridine-2-carboxamide], the values for the Emax in test [1] and in test [2] (setting [3]) were 57% and 19%, respectively. The EC50 stood at 0.029 µM in test [1] and 0.752 µM in test [2].
For `CN(C)C(=O)c1ncc(N2CCC(CC3CCN(C(=O)C(O)(c4cccc(Cl)c4)C(F)(F)F)CC3)CC2)cc1Cl` (stereo not shown) [Example 2-6, 3-chloro-5-[4-({1-[2-(3-chlorophenyl)-3,3,3-trifluoro-2-hydroxy-propanoyl]piperidin-4-yl}methyl)piperidin-1-yl]-N,N-dimethylpyridine-2-carboxamide], in that order: 60%, 26%, 0.022 µM and 0.875 µM.
For `CN(C)C(=O)c1ncc(N2CCC(CC3CCN(C(=O)C(O)(c4cccc(F)c4)C(F)(F)F)CC3)CC2)cc1Cl` (stereo not shown) [Example 2-7, 3-chloro-N,N-dimethyl-5-[4-({1-[3,3,3-trifluoro-2-(3-fluorophenyl)-2-hydroxy-propanoyl]piperidin-4-yl}methyl)piperidin-1-yl]pyridine-2-carboxamide], the Emax in test [1] is 80%; in test [2] (setting [3]) it was 30%. The EC50 was found to be 0.017 µM in test [1] and 0.464 µM in test [2].
Regarding `CN(C)C(=O)c1ccc(N2CCC(CC3CCN(C(=O)c4c(F)cccc4F)CC3)CC2)cc1Cl` [Example 2-8, 2-chloro-4-[4-({1-[(2,6-difluorophenyl)carbonyl]piperidin-4-yl}methyl)piperidin-1-yl]-N,N-dimethyl-benzamide], in test [1], the Emax is 40% and the EC50 turned out to be 0.352 µM. Besides, the Emax in test [2] (setting [3]) is 0%. Moreover, the “LXR alpha IP (nM)” value in test [2] is recorded as “NO IP”.
On to `CN(C)C(=O)c1ccc(N2CCC(CC3CCN(C(=O)C4(c5ccccc5)CC4)CC3)CC2)cc1Cl` [Example 2-9, 2-chloro-N,N-dimethyl-4-[4-({1-[(1-phenyl-cyclopropyl)carbonyl]piperidin-4-yl}methyl)piperidin-1-yl] benzamide], for which, in test [1], the Emax was determined as 48% and the EC50 came out at 0.097 µM. In addition, the Emax in test [2] (setting [3]) came to 0%. Also, the “LXR alpha IP (nM)” value in test [2] is “NO IP”.
For `CN(C)C(=O)c1ccc(N2CCC(CC3CCN(C(=O)C4(c5ccccc5)CCCC4)CC3)CC2)cc1Cl` [Example 2-10, 2-chloro-N,N-dimethyl-4-[4-({1-[(1-phenyl-cyclopentyl)carbonyl]piperidin-4-yl}methyl)piperidin-1-yl] benzamide], in that order: 60%, 0.05 µM, 0% and “NO IP”.
In the case of `CN(C)C(=O)c1ccc(N2CCC(OC3CCN(C(=O)[C@](O)(c4ccccc4)C(F)(F)F)CC3)CC2)cc1Cl` [Example 2-11, 2-chloro-N,N-dimethyl-4-[4-({1-[(2R)-3,3,3-trifluoro-2-hydroxy-2-phenylpropanoyl]piperidin-4-yl}oxy)piperidin-1-yl]benzamide], the Emax in test [1] came to 83%. Moreover, the “LXR alpha Activity @ max dose (%)” value in test [2] (setting [3]) came out at 33%. Besides, the EC50 in test [2] worked out at 1.11 µM.
